Measurements taken from PMC8980233, “Differentiating the Neuropharmacological Properties of Nicotinic Acetylcholine Receptor-Activating Alkaloids” (Frontiers in Pharmacology, 2022).
“Also recorded” adds a separate entry of the source.

Legend:
α7 nAChR = α7 nAChR (Homo sapiens, UniProt P36544); assay: nAChR functional assay, automated patch-clamp; type: cell-based; conditions: mean ± S.D.; no effect = up to 33 μM
Protocol: Electrophysiological responses were recorded using an automated patch-clamp Patchliner Octo® system (Nanion Technologies, Munich, Germany) equipped with two EPC-10 Quadro patch-clamp amplifiers (HEKA Elektronik, Lambrecht, Germany) as described by ([Alijevic et al., 2020]). In brief, Chinese hamster ovary (CHO) or human embryonic kidney-293 (HEK-293) cells stably expressing human nAChRs (Charles River Laboratories, Wilmington, MA, United States) were maintained in DMEM/F12 medium (Gibco, Thermo Fisher Scientific, Waltham, MA, United States) supplemented with 10% heat-inactivated fetal bovine serum (FBS; Gibco) and penicillin–streptomycin (100 U/mL and 0.1 mg/ml, respectively; Sigma-Aldrich, St. Louis, MO, United States) at 37°C in 5% CO2 and 70% humidity. The following selection antibiotics were used for the cell lines: G418 (0.25 mg/ml; Sigma-Aldrich) and Zeocin^TM (0.4 mg/ml; InvivoGen, San Diego, CA, United States) for α7/Ric3 nAChR and α3β4 nAChR cells; puromycin (8 μg/ml; InvivoGen) and hygromycin B (0.4 mg/ml; Gibco) for α4β2 nAChR cells; and G418 (0.5 mg/ml), puromycin (0.25 μg/ml), and hygromycin B (0.02 mg/ml) for α6/3β2/β3 nAChR cells. The cells were used for characterizing nAChR pharmacology, because no endogenous ionotropic nicotinic receptors are found ([Roncarati et al., 2008]; [Papke and Smith-Maxwell, 2009]; [Kirsch et al., 2016]; [Scheffel et al., 2018]). The subunit distributions in the cells have been previously described ([Alijevic et al., 2020]). The human nAChRs were selected due to the lack of commercially available nAChR expression systems for mouse or zebrafish. The translatability of findings between zebrafish and human nAChR activities have been previously reported ([Papke and Smith-Maxwell, 2009]; [Papke et al., 2012]; [Alijevic et al., 2020]).
On the day of the experiment, nAChR-expressing cells were suspended in extracellular solution (in mM: 140 NaCl, 4KCl, one MgCl2, two CaCl2, five glucose, and 10 HEPES, adjusted to pH 7.4 with NaOH (298 mOsmol)), then placed in the Patchliner Octo® system. The internal solution contained in mM: 50 KCl, 60 kF, 10 NaCl, 20 EGTA, and 10 HEPES, adjusted to pH 7.2 with KOH (285 mOsmol). […] Data were analyzed using the Patchmaster software and corrected for leak current. The data acceptance criteria were as follows: seal resistance >100 MΩ; seal resistance loss variation <50%; access resistance <20 MΩ; and minimum current amplitude elicited by maximal effect concentration acetylcholine >50 pA. Offline data analysis was performed in OpenOffice™ (v4.1.2; The Apache Software Foundation, Wakefield, MA, United States). Data are presented as mean ± S.D. All experiments were performed at room temperature (24°C) and repeated at least three times. Igor Pro (v6.2.2.2; WaveMetrics, Lake Oswego, OR, United States) or Prism (v8.2.1) were used for assessing the concentration–response curves.

α4β2 nAChR = α4β2 nAChR (Homo sapiens, UniProt P17787+P43681); assay: Radioligand displacement binding assay
Protocol: All binding and functional assays for molecular target characterization were conducted by Eurofins Cerep SA (Celle-Lévescault, France) and Eurofins Panlabs Discovery Services Taiwan, Ltd. (New Taipei City, Taiwan) using their standard in vitro binding and functional assays (Supplementary Material S2). […] Negative values were considered to be an artifact arising from, for example, compounds interfering with the assay readout.
The radioligand displacement binding assays employed the gold standard filtration method using membrane preparations from stable cell lines (HEK-293 or CHO cells) expressing human or rodent target proteins to determine the interaction of the compounds with specific receptors, channels, and transporters. For this purpose, the competitive binding of test compounds against a [^125I]- [^3H]-, or [^35S]-labelled agonist and/or antagonist was determined.
Assay Source Ligand Conc. Kd Non Specific Incubation Detection Bibl.
N neuronal α7 (h) SH-SY5Y cells [125I]α-bungarotoxin 0.05 nM 0.34 nM α-bungarotoxin 120 min Scintillation 347
(antagonist radioligand) (human (1 µM) 37°C counting

[1] = 0.5 mg/kg; ref Petersen et al. (1984); cited from earlier work

α7 nAChR, sequence (P36544 23-502): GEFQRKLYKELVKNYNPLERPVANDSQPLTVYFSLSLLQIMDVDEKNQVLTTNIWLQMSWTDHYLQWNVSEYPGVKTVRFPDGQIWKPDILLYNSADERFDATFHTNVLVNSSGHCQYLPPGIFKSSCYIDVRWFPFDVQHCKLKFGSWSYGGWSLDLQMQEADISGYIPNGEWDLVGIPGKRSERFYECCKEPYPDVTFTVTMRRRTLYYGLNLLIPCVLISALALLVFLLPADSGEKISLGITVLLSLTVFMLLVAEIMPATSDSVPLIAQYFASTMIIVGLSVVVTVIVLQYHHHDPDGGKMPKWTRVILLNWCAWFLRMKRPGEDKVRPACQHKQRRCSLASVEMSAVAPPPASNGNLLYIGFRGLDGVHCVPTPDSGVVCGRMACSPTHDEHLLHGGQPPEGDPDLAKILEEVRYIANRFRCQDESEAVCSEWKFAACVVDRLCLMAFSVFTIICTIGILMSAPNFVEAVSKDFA
α4β2 nAChR, sequence (P43681 29-627 limits assumed): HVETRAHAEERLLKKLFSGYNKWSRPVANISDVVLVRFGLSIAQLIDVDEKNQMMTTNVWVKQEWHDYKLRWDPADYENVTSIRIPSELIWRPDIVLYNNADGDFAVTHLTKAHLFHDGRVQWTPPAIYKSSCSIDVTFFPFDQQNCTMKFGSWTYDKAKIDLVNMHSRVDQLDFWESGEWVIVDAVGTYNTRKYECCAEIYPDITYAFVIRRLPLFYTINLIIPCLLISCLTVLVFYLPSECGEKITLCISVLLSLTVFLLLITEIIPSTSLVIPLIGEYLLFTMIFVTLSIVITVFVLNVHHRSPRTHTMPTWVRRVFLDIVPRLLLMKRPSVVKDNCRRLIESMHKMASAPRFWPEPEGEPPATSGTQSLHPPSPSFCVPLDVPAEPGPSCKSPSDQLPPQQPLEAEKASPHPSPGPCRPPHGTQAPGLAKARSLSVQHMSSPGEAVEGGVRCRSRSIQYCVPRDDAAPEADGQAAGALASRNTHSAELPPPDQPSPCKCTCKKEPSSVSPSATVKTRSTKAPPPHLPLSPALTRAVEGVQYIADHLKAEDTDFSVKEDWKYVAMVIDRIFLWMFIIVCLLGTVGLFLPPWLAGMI
α4β2 nAChR, sequence (P17787 26-502): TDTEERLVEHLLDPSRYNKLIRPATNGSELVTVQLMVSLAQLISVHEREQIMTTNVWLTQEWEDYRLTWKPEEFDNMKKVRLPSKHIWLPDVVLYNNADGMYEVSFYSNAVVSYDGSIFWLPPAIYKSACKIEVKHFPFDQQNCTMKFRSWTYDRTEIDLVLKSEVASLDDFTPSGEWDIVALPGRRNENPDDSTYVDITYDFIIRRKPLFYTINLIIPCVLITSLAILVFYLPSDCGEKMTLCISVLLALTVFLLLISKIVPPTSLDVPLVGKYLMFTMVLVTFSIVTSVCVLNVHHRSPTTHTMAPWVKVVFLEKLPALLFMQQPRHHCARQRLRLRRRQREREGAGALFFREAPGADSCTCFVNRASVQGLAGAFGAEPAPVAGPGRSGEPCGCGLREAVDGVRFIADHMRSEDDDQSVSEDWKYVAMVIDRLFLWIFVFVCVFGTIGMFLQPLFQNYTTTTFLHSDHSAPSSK

| Structure (SMILES) | α7 nAChR EC50 in µM (α7 nAChR) | binding for α4β2 nAChR (α4β2 nAChR) | plasma concentration [1] [µM] |
| --- | --- | --- | --- |
| CN1C(=O)CC[C@H]1c1cccnc1 [Cotinine, (-)-cotinine] | no detectable activities; also recorded: No effect* | barely detectable |  |
| CN1CCC[C@H]1c1cccnc1 [Nicotine, (-)-Nicotine] |  |  | 5 to 6 |
